# In paper PMC9081329, “Pharmacokinetics, Mass Balance, Excretion, and Tissue Distribution of Plasmalogen Precursor PPI-1011” (Frontiers in Cell and Developmental Biology, 2022):
# Experiment: Single dose tissue distribution study (QWBA, LSC of blood and plasma)
# Format: in vivo, Sprague-Dawley rats
# Description: Six male rats were administered a single oral dose of [^14C]PPI-1011 at 100 mg/kg (200 μCi/kg) and one rat was sacrificed at each of the following time points after the administration of the dose: 8, 12, 18, 24, 48, or 168 h. Terminal blood was collected by cardiac puncture directly into tubes with K2EDTA, an aliquot was stored at 4°C until LSC was performed for radioactivity, while the remaining blood was processed to plasma and stored at −20°C until LSC. Following blood collection, the carcasses were frozen in a cold bath with hexanes and dry ice for at least 8 min and then dried and stored at −70°C for at least 5 h. The carcasses were transferred to a −20°C freezer for at least 12 h before embedding.
# QWBA was used to determine radioactivity concentrations in the caecum (contents and mucosa), large intestine (contents and mucosa), small intestine (contents and mucosa), stomach (contents and mucosa), brain, choroid plexus, spinal cord, bone, skin, adrenal gland, pineal body, pituitary gland, thyroid gland, liver, kidney (cortex, medulla and whole kidney), urinary bladder (contents and wall), brown fat, white fat, eye (lens, uveal tract and whole eye), epididymis, prostate gland, testis, ovary, uterus, lung, exorbital lachrymal gland, Harderian gland, pancreas, salivary gland, skeletal muscle, myocardium, cardiac blood, bone marrow, lymph node, spleen, and thymus. As well, LSC was used to determine the total radioactivity in the whole blood and plasma.
# The whole-body cryosectioning technique described by ([Ullberg, 1977]) was the basis for embedding and cryosectioning the rats assigned to this study. Each frozen carcass was shaved, and then the limbs and tail were removed prior to embedding. Chilled (4°C) 3% CMC (low viscosity) was utilized to provide a firm support of reinforced ice around each rat and for a secure attachment to the microtome stage. Upon thorough freezing of the embedding medium surrounding each rat, the frozen CMC block was removed from the freezing bath and four 3/8 inch holes were drilled into the block. One cryosection quality control standard (CQCS) was prepared with a known amount of radioactivity and at least 1 ml aliquots were added to each of the four drilled holes. CQCS data were utilized to evaluate the overall performance of the QWBA assay.
# Each frozen rat was sagittally trimmed (50–100 μm) at −20°C until exposure of a few target tissues employing a Leica Cryomacrocut heavy-duty microtome (Leica Microsystems Inc.,). Disposable stainless steel Feather type H45L knives (Feather Safety Razor Co., Ltd.) were utilized for trimming and sectioning each frozen rat. Several thinner sections (50 μm) were discarded prior to obtaining multiple 50 μm sections at various cryosectioning levels for QWBA analysis. Upon the collection of at least 60 target tissues in multiple cryosectioning levels, the cryosections were kept in the Cryomacrocut cryochamber for a minimum of 18 h for dehydration depending upon the number of cryosections within the cryochamber. After dehydration was complete, the cryosections were transferred to ambient temperature for processing. Mounted whole-body cryosections and a set of 15 standards were sandwiched between a standard phosphor screen and an exposure cassette. All cryosections were exposed to the phosphor screen for 4-days in a cabinet protected with lead prior to scanning using a Typhoon PhosphorImager (Cytiva). MCID™ Analysis software (InterFocus Ltd.) was utilized to generate a calibration curve of the STD nominal concentrations (nCi/g) versus PhosphorImager response (counts/μm^2 minus background) by weighted (1/x) linear regression analysis ([Potchoiba et al., 1995]; [Potchoiba et al., 1998]). The linear regression curve was then utilized to determine the concentration (nCi/g) of total radioactivity in whole-body tissues and blood. Radioactivity concentrations were expressed as μg Eq/g based on the specific activity of the compound in the final dose formulations. […]
# [1] = 12 h post single oral 100 mg/kg
# [2] = 18 h post single oral 100 mg/kg
# [3] = 24 h post single oral 100 mg/kg
smiles,measurement,setting,value
CC/C=C\C/C=C\C/C=C\C/C=C\C/C=C\C/C=C\CCC(=O)O[C@H](CO[14CH2]CCCCCCCCCCCCCCC)COC(=O)CCCCC1CCSS1 (stereo partly shown) [[^14C]PPI-1011],"Radioactivity concentration, Olfactory Bulb",[1],2.01 μg equivalents/g
same,"Radioactivity concentration, Pancreas",[1],52.7 μg equivalents/g
same,"Radioactivity concentration, Parotid Gland",[1],30.4 μg equivalents/g
same,"Radioactivity concentration, Pineal Gland",[1],12.1 μg equivalents/g
same,"Radioactivity concentration, Pituitary Gland",[1],21.2 μg equivalents/g
same,"Radioactivity concentration, Preputial Gland",[1],214 μg equivalents/g
same,"Radioactivity concentration, Prostate",[1],11.8 μg equivalents/g
same,"Radioactivity concentration, Renal Cortex",[1],46.6 μg equivalents/g
same,"Radioactivity concentration, Renal Medulla",[1],53.2 μg equivalents/g
same,"Radioactivity concentration, Salivary Gland",[1],31.4 μg equivalents/g
same,"Radioactivity concentration, Seminal Vesicles",[1],2.99 μg equivalents/g
same,"Radioactivity concentration, Skin - Non-Pigmented",[1],18.0 μg equivalents/g
same,"Radioactivity concentration, Small Intestines",[1],347 μg equivalents/g
same,"Radioactivity concentration, Spinal Cord",[1],2.76 μg equivalents/g
same,"Radioactivity concentration, Spleen",[1],111 μg equivalents/g
same,"Radioactivity concentration, Stomach",[1],22.9 μg equivalents/g
same,"Radioactivity concentration, Testis",[1],4.12 μg equivalents/g
same,"Radioactivity concentration, Thalamus",[1],2.31 μg equivalents/g
same,"Radioactivity concentration, Thymus",[1],12.2 μg equivalents/g
same,"Radioactivity concentration, Thyroid",[1],43.1 μg equivalents/g
same,"Radioactivity concentration, Whole Brain",[1],2.48 μg equivalents/g
same,"Radioactivity concentration, Adipose - Brown",[2],66.0 μg equivalents/g
same,"Radioactivity concentration, Adipose - Brown (Vessel Wall)",[2],94.2 μg equivalents/g
same,"Radioactivity concentration, Adipose - Subcutaneous",[2],73.9 μg equivalents/g
same,"Radioactivity concentration, Adipose - Visceral",[2],75.6 μg equivalents/g
same,"Radioactivity concentration, Adrenal Gland",[2],185 μg equivalents/g
same,"Radioactivity concentration, Bladder Wall",[2],14.5 μg equivalents/g
same,"Radioactivity concentration, Blood - QWBA",[2],9.62 μg equivalents/g
same,"Radioactivity concentration, Bone Marrow",[2],22.3 μg equivalents/g
same,"Radioactivity concentration, Bone Surface",[2],1.25 μg equivalents/g
same,"Radioactivity concentration, Cecum",[2],177 μg equivalents/g
same,"Radioactivity concentration, Cerebellum",[2],3.03 μg equivalents/g
same,"Radioactivity concentration, Cerebrum",[2],2.49 μg equivalents/g
same,"Radioactivity concentration, Choroid Plexus",[2],12.8 μg equivalents/g
same,"Radioactivity concentration, Colliculus",[2],2.94 μg equivalents/g
same,"Radioactivity concentration, Diaphragm",[2],40.4 μg equivalents/g
same,"Radioactivity concentration, Epididymis",[2],67.7 μg equivalents/g
same,"Radioactivity concentration, Esophagus",[2],15.0 μg equivalents/g
same,"Radioactivity concentration, Exorbital Lacrimal Gland",[2],8.74 μg equivalents/g
same,"Radioactivity concentration, Gastric Mucosa",[2],70.1 μg equivalents/g
same,"Radioactivity concentration, Harderian Gland",[2],14.7 μg equivalents/g
same,"Radioactivity concentration, Intra-Orbital Lacrimal Gland",[2],8.91 μg equivalents/g
same,"Radioactivity concentration, Kidney",[2],36.1 μg equivalents/g
same,"Radioactivity concentration, Large Intestines",[2],154 μg equivalents/g
same,"Radioactivity concentration, Liver",[2],121 μg equivalents/g
same,"Radioactivity concentration, Lung",[2],45.4 μg equivalents/g
same,"Radioactivity concentration, Lymph Node",[2],22.5 μg equivalents/g
same,"Radioactivity concentration, Medulla Oblongata",[2],2.23 μg equivalents/g
same,"Radioactivity concentration, Muscle",[2],9.63 μg equivalents/g
same,"Radioactivity concentration, Myocardium",[2],42.4 μg equivalents/g
same,"Radioactivity concentration, Nasal Turbinates",[2],6.43 μg equivalents/g
same,"Radioactivity concentration, Ocular - Uveal Tract",[2],5.32 μg equivalents/g
same,"Radioactivity concentration, Ocular - Whole Eye",[2],1.65 μg equivalents/g
same,"Radioactivity concentration, Olfactory Bulb",[2],1.75 μg equivalents/g
same,"Radioactivity concentration, Pancreas",[2],39.8 μg equivalents/g
same,"Radioactivity concentration, Parotid Gland",[2],35.2 μg equivalents/g
same,"Radioactivity concentration, Pineal Gland",[2],16.2 μg equivalents/g
same,"Radioactivity concentration, Pituitary Gland",[2],22.0 μg equivalents/g
same,"Radioactivity concentration, Preputial Gland",[2],78.0 μg equivalents/g
same,"Radioactivity concentration, Prostate",[2],28.0 μg equivalents/g
same,"Radioactivity concentration, Renal Cortex",[2],38.1 μg equivalents/g
same,"Radioactivity concentration, Renal Medulla",[2],23.0 μg equivalents/g
same,"Radioactivity concentration, Salivary Gland",[2],28.8 μg equivalents/g
same,"Radioactivity concentration, Skin - Non-Pigmented",[2],12.0 μg equivalents/g
same,"Radioactivity concentration, Small Intestines",[2],239 μg equivalents/g
same,"Radioactivity concentration, Spinal Cord",[2],3.20 μg equivalents/g
same,"Radioactivity concentration, Spleen",[2],71.3 μg equivalents/g
same,"Radioactivity concentration, Stomach",[2],21.6 μg equivalents/g
same,"Radioactivity concentration, Testis",[2],5.09 μg equivalents/g
same,"Radioactivity concentration, Thalamus",[2],2.20 μg equivalents/g
same,"Radioactivity concentration, Thymus",[2],11.8 μg equivalents/g
same,"Radioactivity concentration, Thyroid",[2],38.5 μg equivalents/g
same,"Radioactivity concentration, Whole Brain",[2],2.70 μg equivalents/g
same,"Radioactivity concentration, Adipose - Brown",[3],133 μg equivalents/g
same,"Radioactivity concentration, Adipose - Brown (Vessel Wall)",[3],110 μg equivalents/g
same,"Radioactivity concentration, Adipose - Subcutaneous",[3],70.1 μg equivalents/g
same,"Radioactivity concentration, Adipose - Visceral",[3],71.6 μg equivalents/g
same,"Radioactivity concentration, Adrenal Gland",[3],155 μg equivalents/g
same,"Radioactivity concentration, Bladder Wall",[3],7.69 μg equivalents/g
same,"Radioactivity concentration, Blood - QWBA",[3],5.62 μg equivalents/g
same,"Radioactivity concentration, Bone Marrow",[3],18.3 μg equivalents/g
same,"Radioactivity concentration, Bone Surface",[3],0.513 μg equivalents/g
same,"Radioactivity concentration, Cecum",[3],231 μg equivalents/g
same,"Radioactivity concentration, Cerebellum",[3],2.08 μg equivalents/g
same,"Radioactivity concentration, Cerebrum",[3],1.61 μg equivalents/g
